Measurements published in article PMC5684143, “New melanocortin-like peptide of E. coli can suppress inflammation via the mammalian melanocortin-1 receptor (MC1R): possible endocrine-like function for microbes of the gut” (NPJ Biofilms and Microbiomes, 2017).
“And” between values parts separate entries of the source, which are not always exact repeats. Identical values can stand only once.

Columns and labels:
[1] = tested on: RAW 264.7 cells; test: Cyclic-AMP production in RAW 264.7 cells; type: cell-based, murine; details: 30 min, 37 °C, 1 mM IBMX, four experiments per peptide, each value from separate experiment(s)
Protocol: RAW 264.7 cells were grown to confluence in culture plates, harvested by classical methods, and then seeded onto 48-well plates (1 × 10^6/ml). Cells were incubated with peptide at 37 °C in Opti-MEM I serum-free medium containing 1 mM 3-isobutyl-1-methylxanthine. At 30 min, cells were lysed in the original wells. The lysates were extracted from the wells, and cyclic-AMP measurements carried out using the Biotrak kit (cyclic-AMP Biotrak Enzymeimmunoassay System, Amersham Biosciences) including a standard cyclic-AMP curve as recommended by the suppliers.[35]
RAW 264.7 cells were incubated with peptides for 30 minutes at 37 degrees. Cell lysates were extracted and c-AMP measurements carried out using a commercial kit [c-AMP biotrack-immunoassay system, Amersham Biosciences] with a c-AMP standard curve as recommended by the suppliers. […] The only experiment with ACTH is shown above. (Effects of LPS at 4 nanograms per ml. or of HMGB1 at 0.1 µg. per ml. on ligand-stimulated c-AMP accumulation were quite modest and inconsistent). […]

[2] = tested on: RAW 264.7 cells; test: LPS-induced HMGB1 release by RAW 264.7 cells (western blot); type: cell-based, murine; details: LPS 100 ng/ml, peptide 10^-10 M, 16-20 hrs, four independent experiments, P < 0.01
Protocol: Murine macrophage-like RAW 264.7 cells were obtained from American Type Culture Collection, and were grown in Dulbecco’s Modified Eagle’s Medium (DMEM, Life Technologies) containing 10% (vol/vol) heat-inactivated fetal bovine serum (FBS, Hyclone Lab. Inc.), penicillin 100 U/ml, and streptomycin 100 μg/ml (BioWhittaker Inc.). Cells were suspended in medium and incubated in 24-well or 48-well tissue-culture plates overnight in a humidified incubator (37 °C, 5% CO2). Growth medium was removed and replaced by Opti-MEM I serum-free medium (Life Technologies) overnight. […]
(§1) The levels of HMGB1 in the culture medium or murine serum were measured by western immunoblotting as previously described.[30] […] The relative band intensity was quantified by using the NIH image 1.59 software. The levels of HMGB1 (expressed as % maximum effect) were calculated with reference to standard curves generated with purified rHMGB1 and expressed as mean ± SEM of four experiments.
Murine macrophage-like RAW 264.7 cells were incubated with LPS (100 ng/ml) in the absence or presence of MECO-1 or alpha-MSH at 10^-10 M. At 16-20 hrs after stimulation, aliquots of cell-free medium were examined. HMGB1 levels in the (conditioned) culture medium were expressed as mean ± SEM of four independent experiments with the peak level (obtained with LPS) set at 100%. […]

[3] = tested on: Balb/C mice; test: CLP sepsis, survival and serum cytokines at 40 h (protocol B); type: in vivo; details: one dose 5 mg/kg i.p. at 24 h
Protocol: In vivo studies were performed in accordance with National Institutes of Health guidelines and with the approval of the North Shore-Long Island Jewish Health System’s Institutional Animal Care and Use Committee (IACUC). In mice, polymicrobial sepsis was induced by surgical ligation and perforation of the cecum, a widely used technique known as CLP. Briefly, male BALB/c mice (7–8 weeks old, 20–25 g) were anesthetized with a mixture of ketamine (100 mg/kg) and xylazine (8 mg/kg) intramuscularly, and a 15 mm midline incision was made to expose the cecum. After ligation of the cecum with a 6.0 silk suture below the junction of the ileo–cecal valve, the ligated cecal stump was perforated once with a 22-gauge needle. The cecum was then gently squeezed to extrude a small amount of feces through the perforation site. The cecum was restored to its normal intra-abdominal position, and the laparotomy was closed with 6.0 silk sutures. Immediately after CLP surgery, all animals were resuscitated with normal saline solution (subcutaneously 20 ml/kg body weight), and given a single dose of antibiotics (primaxin 0.5 mg/kg). In sham operated animals, the cecum was temporarily ligated, but the bowel was not punctured; these animals also received antibiotic treatment and resuscitation fluid. […] Survival was monitored twice daily for 2 weeks, at which time survivors were killed (CO2 asphyxia). […] Survival was monitored twice daily after surgery. […]
as §1
Concentrations of TNF and IL-6 were each determined using a commercially available enzyme-linked immunosorbent assay (ELISA) kit (R&D System Inc.) as previously described.[34] The levels of TNF or IL-6 were calculated with reference to standard curves. […]

alpha-melanocyte-stimulating hormone [alpha-MSH]
peptide concentration at which statistically significant stimulation of cAMP was noted (single experiments) [1]: 10^-9 M and 10^-10 M | LPS-induced HMGB-1 secretion [2]: markedly reduced | serum TNF and IL-6 in survivors at 40 h after CLP ([3]; ELISA, p < 0.05 vs CLP alone): significantly muted responses | animals surviving to 40 h after CLP ([3]; n = 10, saline four out of nine): Six of ten | animals with elevated serum HMGB1 at 40 h after CLP ([3]; western blot, saline three of four): none
